Assay results reported in patent US20090220429A1, “METHOD AND A SYSTEM FOR ASSESSING NEUROLOGICAL CONDITIONS” (METIS CURA EHF, priority 2005, published 2009).

Tests used:
[1] = system: early DAT subjects compared to controls; details: 1-3 min post-injection; no significant group difference at baseline; cited from earlier work
[2] = system: subjects with dementia of the Alzheimer's type (AD group) and healthy control group; assay: Clinical trial: EEG recorded before and after intravenous scopolamine as probe compound, feature pair classification of AD group versus control group; assay type: in vivo, human; details: for number of feature pair classifiers scoring 80% or better: features 33-48 (ratios before/after administration), P3-P4 montage, leave one out
From the text: The effectiveness of the invention has been verified in a clinical trial. The participants in the trial were divided in two groups. One group consisted of 10 elderly subjects that have been diagnosed with, mild to moderate, dementia of the Alzheimer's type (AD group). A second age-matched group of 10 healthy individuals (i.e. non-AD individuals) was included as a control group.
The AD-group of participants consisted of patients in follow-up surveillance in the memory clinic at the Department of Geriatrics in Landspitali University Hospital, Reykjavik, Iceland. The group consisted of patients with Alzheimer's Disease (AD) (N=10) according to ICD-10. The other group consisted of normal Control participants (N=10), who were recruited from relatives of demented patients attending a day-care center.
To be eligible for participation in the study the subjects had to be in the range of 60-80 years of age, in good general health as determined by standard physical examination, with no acute changes on ECG. Exclusion criteria included smoking or any other use of tobacco (also excluding those that had stopped tobacco use about a week or less prior to the trial), treatment with neuroleptics and benzodiazepines, impaired liver- or kidney function, hypersensitivity to scopolamine, indication of drug, alcohol or medical abuse, glaucoma or possibility of raised intraocular pressure with administration of scopolamine. Prior to the screening visit the subjects were interviewed by phone. The AD subjects were selected from hospital records. All the AD patients in the follow-up program at the Memory Clinic were being treated with anti-dementia drugs. To minimize the variation between the subjects in the trial, the participants in the AD-group were selected from patients that were being treated with the same cholinesterase-inhibitor, Reminyl® (galantamine HBr).
Electroencephalographic neurophysiological signals were recorded from each of the subjects. The recording protocol was divided into two parts 105, 107 or sessions which were identical. In between the sessions the provided substance 101 substance scopolamine was administered intravenously, see FIG. 10. Within each section a two-minute period was recorded while the subject was instructed to be at rest with eyes closed. The data collected from these periods were used to estimate the individual features. The substance scopolamine was chosen based on its effects perturbing biophysical pathways that are known to deteriorate in subjects suffering from Alzheimer's disease. […]
The electroencephalographic signals were recorded using computerized measuring equipment, see FIG. 11. […]
These features were evaluated using a part of the first section where the subjects were at rest with eyes closed. […]

| SMILES | beta power response in the frontal region, early DAT subjects compared to controls [1] | classification performance ([2]; 3-NN scheme, FIG. 15, response feature set versus pre-administration feature set) | number of feature pair classifiers scoring 80% or better ([2]; 3-NN scheme, 4 with pre-administration features 1-16) | number of feature pair classifiers scoring 80% or better ([2]; SVM classification scheme, 5 with pre-administration features 1-16) | separation between the AD and control groups for a feature pair ([2]; ratio of feature values pre- and post-administration (FIG. 14) versus features before administration (FIG. 13)) |
| --- | --- | --- | --- | --- | --- |
| CCCC(C)C1(CC)C(=O)NC(=S)NC1=O (centres unmarked) [thiopental] | significantly smaller beta power response |  |  |  |  |
| CN1[C@@H]2C[C@@H](OC(=O)[C@H](CO)c3ccccc3)C[C@H]1[C@@H]1O[C@@H]12 [scopolamine] |  | substantially enhanced classification performance | 29 | 23 | significantly better separation between the groups |
